US7977387B2, “Aminobenzophenone compounds” (Leo Pharma A/S, priority 2003, dated 2011)

Legend:
[1] = test system: LPS induced TNF-α response; experiment: In vivo screening model of LPS induced TNF-α response in mice; settings: Mus musculus, mice (C3H/HeN), dosed 1 hour prior to LPS, plasma TNF-α 80-90 minutes after LPS, vs LPS treated control group, read-out: In vivo inhibition of LPS induced TNF-α production (in %)
Method: In Vivo Screening Model of LPS Induced TNF-α Response in Mice
To study the effect of compounds of the present invention in vivo, an in vivo screening model of LPS induced TNF-α response in mice was set up as follows: Groups of 6 mice (C3H/HeN, female, about 8 weeks (20 g), Bomholtgaard) were dosed with test compounds in suspension vehicle 1 hour prior to LPS administration (LPS from E. coli 055:B5, L-4005, Sigma). At time 0, the mice were dosed ip with 1.0 mg LPS/kg. After anesthetization with Hypnorm/Dormicum, the mice were bled from the periorbital venous plexus 80-90 minutes after LPS administration. The blood samples were sampled in EDTA stabilised tubes and centrifuged at 4000 rpm for 10 minutes at 4° C. The plasma level of TNF-α was analysed by ELISA. Compound 156 of WO 98/32730 was used as reference compound. The plasma level of TNF-α was determined using a sandwich ELISA. Microtiter plates were coated with a monoclonal antibody against mouse TNF-α, washed and blocked with a casein buffer. Samples of mouse TNF-α recombinant standards were added to the wells of the microtiter plates and incubated. All standards were tested in triplicate, all plasma samples in single. After sample and standard incubation, the plates were washed and incubated with biotinylated polyclonal secondary antibody against mouse TNF-α and washed. Enzyme conjugate was added to all wells and incubated. Substrate was added and the enzyme/substrate reaction stopped after 15 minutes at room temperature with 1M H2SO4. The colour development (OD) was measured at 450 nm on an ELISA reader and the background OD at 620 nm was subtracted. […] The results of the tested compounds are indicated as a percentage inhibition compared to an LPS treated control group. Compounds were tested at 10 mg/kg. The Mann-Whitney test was used to compare drug treated groups to the LPS treated control group (p<0.05).

IL-1β = experiment: Inhibition of IL-1β secretion in LPS stimulated peripheral blood mononuclear cells; type: cell-based; settings: PBMC; LPS stimulated human peripheral blood mononuclear cells, 18 hours, ELISA; read-out: The median inhibition concentration (IC50, nM) of IL-1β
Method: (§1) To study the effect of compounds of the present invention in vitro, the inhibition of IL-1β and TNF-α secretion was determined using the following procedure:
(§2) Cytokine production was measured in the media from lipopolysaccharide (LPS) stimulated peripheral blood mononuclear cells. The mononuclear cells were isolated from human peripheral blood by Lymphoprep® (Nycomed, Norway) fractionation and suspended in RPMI 1640 (growth medium) with foetal calf serum (FCS, 2%), at a concentration of 5×10^5 cells/ml. The cells were incubated in 24-well tissue culture plates in 1 ml aliquots. Test compounds were dissolved in dimethylsulfoxide (DMSO, 10 mM) and were diluted with the medium. Compounds were added to the cells for 30 minutes, then LPS ([…] final concentration) was added. The plates were incubated for 18 hours, and the concentration of IL-β and TNF-α in the medium was determined by enzyme-linked immunosorbent assays. The median inhibitory concentrations (IC50) of the compounds were calculated.

TNF-α = experiment: Inhibition of TNF-α secretion in LPS stimulated peripheral blood mononuclear cells; type: cell-based; settings: PBMC; LPS stimulated human peripheral blood mononuclear cells, 18 hours, ELISA; read-out: The median inhibition concentration (IC50, nM) of TNF-α
Method: as §1, §2

## Cc1cc(Br)ccc1Nc1ccc(C(=O)c2cc(C(=O)NCCO)ccc2C)c(Cl)c1 [Compound 114, 3-[4-(4-Bromo-2-methylphenylamino)-2-chlorobenzoyl]-N-(2-hydroxyethyl)-4-methylbenzamide]
[1]
  inhibition at 10 mg/kg: 72%
IL-1β
  IC50: 2.5 nM
TNF-α
  IC50: 0.4 nM

## Cc1ccc(C(=O)NCCO)cc1C(=O)c1ccc(Nc2ccc(F)cc2F)cc1Cl [Compound 115, 3-[2-Chloro-4-(2,4-difluorophenylamino)benzoyl]-N-(2-hydroxyethyl)-4-methylbenzamide]
[1]
  inhibition at 10 mg/kg: 96%
IL-1β
  IC50: 1.3 nM
TNF-α
  IC50: 0.3 nM

## COCCNC(=O)c1ccc(C)c(C(=O)c2ccc(Nc3ccccc3N)cc2Cl)c1 [Compound 116, 3-[4-(2-Aminophenylamino)-2-chlorobenzoyl]-N-(2-methoxyethyl)-4-methylbenzamide]
[1]
  inhibition at 10 mg/kg: 95%
IL-1β
  IC50: 1 nM
TNF-α
  IC50: 1 nM

## CCNC(=O)c1ccc(C)c(C(=O)c2ccc(Nc3ccccc3N)cc2Cl)c1 [Compound 117, 3-[4-(2-Aminophenylamino)-2-chlorobenzoyl]-N-ethyl-4-methylbenzamide]
[1]
  inhibition at 10 mg/kg: 71%
IL-1β
  IC50: 4 nM
TNF-α
  IC50: 1 nM

## Cc1ccc(C(=O)NCCO)cc1C(=O)c1ccc(Nc2ccc(Cl)cc2F)cc1Cl [Compound 120, 3-[2-Chloro-4-(4-chloro-2-fluoro-phenylamino)-benzoyl]-N-(2-hydroxy-ethyl)-4-methyl-benzamide]
[1]
  inhibition at 10 mg/kg: 86%
IL-1β
  IC50: 2.7 nM
TNF-α
  IC50: 2 nM

## CCOC(=O)CNC(=O)c1ccc(C)c(C(=O)c2ccc(Nc3ccc(Cl)cc3F)cc2Cl)c1 [Compound 123, {3-[2-Chloro-4-(4-chloro-2-fluoro-phenylamino)-benzoyl]-4-methyl-benzoylamino}acetic acid ethyl ester]
[1]
  inhibition at 10 mg/kg: 47%
IL-1β
  IC50: 0.5 nM
TNF-α
  IC50: 0.3 nM

## CCNC(=O)c1ccc(C)c(C(=O)c2ccc(Nc3ccc(Cl)cc3F)cc2Cl)c1 [Compound 126, 3-[2-Chloro-4-(4-chloro-2-fluoro-phenylamino)-benzoyl]-N-ethyl-4-methyl-benzamide]
[1]
  inhibition at 10 mg/kg: 79%
IL-1β
  IC50: 2.8 nM
TNF-α
  IC50: 0.6 nM

## Cc1ccc(C(=O)NCC(C)C)cc1C(=O)c1ccc(Nc2ccc(Cl)cc2F)cc1Cl [Compound 129, 3-[2-Chloro-4-(4-chloro-2-fluoro-phenylamino)-benzoyl]-N-isobutyl-4-methyl-benzamide]
[1]
  inhibition at 10 mg/kg: 73%
IL-1β
  IC50: 2.5 nM
TNF-α
  IC50: 1.3 nM

## COCCCNC(=O)c1ccc(C)c(C(=O)c2ccc(Nc3ccc(Cl)cc3F)cc2Cl)c1 [Compound 131, 3-[2-Chloro-4-(4-chloro-2-fluoro-phenylamino)-benzoyl]-N-(3-methoxy-propyl)-4-methyl-benzamide]
[1]
  inhibition at 10 mg/kg: 70%
IL-1β
  IC50: 3.2 nM
TNF-α
  IC50: 1.3 nM

## COc1ccc(C(=O)NCCO)cc1C(=O)c1ccc(Nc2ccc(F)cc2F)cc1Cl [Compound 140, 3-[2-Chloro-4-(2,4-difluoro-phenylamino)-benzoyl]-N-(2-hydroxy-ethyl)-4-methoxy-benzamide]
[1]
  inhibition at 10 mg/kg: 76%
IL-1β
  IC50: 1.4 nM
TNF-α
  IC50: 1 nM

## COc1ccc(C(=O)NCC(F)F)cc1C(=O)c1ccc(Nc2ccc(F)cc2F)cc1Cl [Compound 141, 3-[2-Chloro-4-(2,4-difluoro-phenylamino)-benzoyl]-N-(2,2-difluoro-ethyl)-4-methoxy-benzamide]
[1]
  inhibition at 10 mg/kg: 46%
IL-1β
  IC50: 0.9 nM
TNF-α
  IC50: 0.6 nM

## Cc1ccc(C(=O)NCC(N)=O)cc1C(=O)c1ccc(Nc2ccc(F)cc2F)cc1Cl [Compound 145, N-Carbamoylmethyl-3-[2-chloro-4-(2,4-difluoro-phenylamino)-benzoyl]-4-methyl-benzamide]
[1]
  inhibition at 10 mg/kg: 94%
IL-1β
  IC50: 1.3 nM
TNF-α
  IC50: 0.3 nM

## Cc1ccc(C(=O)NCCF)cc1C(=O)c1ccc(Nc2ccc(F)cc2F)cc1Cl [Compound 147, 3-[2-Chloro-4-(2,4-difluoro-phenylamino)-benzoyl]-N-(2-fluoro-ethyl)-4-methyl-benzamide]
[1]
  inhibition at 10 mg/kg: 89%
IL-1β
  IC50: 2.5 nM
TNF-α
  IC50: 0.8 nM
